The record followed here is patent publication US20260356824A1, “COMPOUNDS FOR TREATING FIBROTIC DISEASES” (Meta-Immue Inc., priority 2023, published 2026).

Broadly, the share remaining is the share of the starting amount still present when the sample was taken. A word on the IC50: it is the concentration at which inhibition is half-maximal. For orientation: inhibition means the percentage by which the read-out fell short of the control.

A short description of series [1]: Liver microsomal stability, human. It is filed as in vitro ADME. To be noted: human liver microsomes; 30 min; percent of parent remaining; read-out: Liver Microsomal stability (%), % of remaining after 30 min, Human. (Liver microsomes are a subcellular fraction often used to study metabolism.)
Series [2] deals with A2058 cells. As to the kind of experiment: Chemotaxis Assay (LPA-induced migration of A2058 cells). It is filed as cell-based. The note with it: Homo sapiens, 4 to 8 hours, crystal violet 590 nm. An outline of the steps:
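A2058 cells, starved 24 hr and treated with test compound or vehicle, were placed on a fibronectin-coated membrane ([…]) above […] in DMEM. After 4–8 h migration, migrated cells were crystal violet stained and read at 590 nm. Values are relative percentage of control.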

Series [3] concerns the target T1, hLPAR1 (Homo sapiens, UniProt Q92633).
T1 construct: expressed in transfected cells
As to the kind of experiment: Ca2+ Flux Assay (B103 cells stably expressing hLPAR1). It is filed as cell-based. The note with it: LPA-induced calcium release, Fura-2 AM, compound 20 min at RT. An outline of the steps: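 Fura-2 AM (5 μM) loaded 40 min at RT in HBSS/20 mM HEPES/probenecid/0.3% fatty-acid-free BSA after 2 h serum starvation. Compounds preincubated 20 min at RT, then LPA […] added. Intracellular calcium mobilization read as fluorescence intensity.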
In general terms: A change in cytosolic calcium serves as a functional read-out for many receptors and channels.

Series [4] is described as follows: Liver microsomal stability, rat. In kind it is in vitro ADME. The note with it: rat liver microsomes; 30 min; percent of parent remaining; read-out: Liver Microsomal stability (%), % of remaining after 30 min, Rat.
Series [5] concerns the target T2, BSEP (Homo sapiens, UniProt O95342).
T2 construct: ATP-dependent uptake of radiolabelled probe substrate
Kind of series: Bile Salt Export Pump (BSEP) Assay, Sf9 insect cell vesicles expressing BSEP. To be noted: 10 μM test compound, probe substrate 1 μM [3H]-taurocholic acid, 15 min incubation. In kind it is in vitro ADME. The protocol:
• 1. A stock solution was prepared with the test article (Sponsor compound) in DMSO. • 2. All final assay solutions of probe substrate, reference inhibitor or test article contain 0.5% (v/v) DMSO (vehicle control). • 3. Test article concentrations in transport study were specified in the Summary Table of Experimental Conditions of this protocol.
• 1. Bovine Serum Albumin (BSA) • 2. Dimethyl sulfoxide (DMSO) • 3. BSEP Assay Uptake Buffer (10 mM HEPES-Tris pH 7.4, 0.1 M KNO3, 12.5 mM Mg(NO3)2, 50 mM sucrose) • 4. BSEP Wash Buffer (10 mM Tris-HCl pH 7.4, 0.1 M KNO3, 50 mM sucrose) • 5. BSEP Blocking Buffer (BSEP Wash Buffer+0.5 mg/mL BSA) • 6. 25 mM Mg-ATP solution • 7. 25 mM AMP solution • 8. Corning Costar 96-well flat-bottom, untreated, white Assay Plate (Corning Cat. No. 3912) • 9. Millipore MultiscreenHTs Filtration Plate, glass fiber FB—1.0/0.65 μm (Cat. No. MSFBN6B10 or glass fiber FC—1.2/0.65 μm (Cat. No. MSFCN6B10) • 10. Millipore MultiscreenHTS Vacuum Manifold (Cat. No. MSVMHTS00) • 11. Probe substrates listed in Table 1 • 12. Reference inhibitors listed in Table 1 • 13. Test articles
• 1. Test system: • a. 96-well flat bottom plate containing a suspension of vesicles and a corresponding 96-well glass fiber filtration plate. • b. Transport experiments were conducted in the Assay Uptake Buffer. • c. Transport experiment was initiated with the addition of Mg-ATP or AMP to appropriate wells. • d. Each condition was run in triplicate wells. • 2. Prepared the 96-well flat-bottom assay plate. • a. Incubated the assay plate with the Blocking Buffer for 60 min at 37 °C with orbital shaking at approximately 90 rpm. (NOTE: This is done to prevent non-specific binding of vesicles to polystyrene assay plate). • b. After 60 min, completely removed the Blocking Buffer from the assay plate. • c. The Assay Uptake Buffer solutions were added to the assay plate wells as follows: • i. For probe substrate transport assays, the Assay Uptake Buffer contained vesicles and the probe substrate at the specified concentration. • ii. For the reference inhibition assay, the Assay Uptake Buffer contained vesicles, the reference inhibitor and the probe substrate at the specified concentration in Table 1. • iii. For the test article assays, Assay Uptake Buffer contained vesicles, the test article and the probe substrate at the specified concentration in Table 1. • 3. Incubate at 37 °C with orbital shaking at approximately 90 rpm for the time period specified in Table 1 of this protocol. • 4. Using the 25 mM Mg-ATP or AMP stocks, Mg-ATP or AMP was added to test wells of flat bottom assay plate to a final concentration of 5 mM. • 5. Incubated at 37 °C with orbital shaking at approximately 90 rpm for the incubation time specified in Table 1 of this protocol. • 6. Prepared the 96-well glass fiber filtration plate: • a. Incubated the filtration plate with the Blocking Buffer for 2 min at room temperature with under no vacuum. • b. Turned on vacuum and allowed Blocking Buffer to filter through plate. • c. With vacuum on, filter plate was washed with ice cold Wash Buffer. • 7. At the end of the specified incubation time indicated in […] of this protocol, vesicle transport was quenched by adding ice cold Wash Buffer to samples in 96-well assay plate. • 8. Mixed assay samples (now diluted in Wash Buffer) with pipette and transfered 175 μL into the 96-well glass fiber filtration plate to separate vesicles from buffer by applying vacuum. • 9. Washed filter plate wells with ice cold Wash Buffer. • 10. Allowed filter plate to dry under vacuum. • 11. Transfered filters to scintillation sample plate and added 700 μL of scintillation fluid to the above samples. • 12. Counted the above samples on a 1450 Microbeta (Perkin-Elmer).
• 1. The amount of substrate was quantified with radiometric detection on a 1450 Microbeta (Perkin-Elmer). • 2. For transport study samples run in triplicate, the mean and standard deviation of the replicates were reported. • 3. […]

T2 sequence (O95342 whole entry): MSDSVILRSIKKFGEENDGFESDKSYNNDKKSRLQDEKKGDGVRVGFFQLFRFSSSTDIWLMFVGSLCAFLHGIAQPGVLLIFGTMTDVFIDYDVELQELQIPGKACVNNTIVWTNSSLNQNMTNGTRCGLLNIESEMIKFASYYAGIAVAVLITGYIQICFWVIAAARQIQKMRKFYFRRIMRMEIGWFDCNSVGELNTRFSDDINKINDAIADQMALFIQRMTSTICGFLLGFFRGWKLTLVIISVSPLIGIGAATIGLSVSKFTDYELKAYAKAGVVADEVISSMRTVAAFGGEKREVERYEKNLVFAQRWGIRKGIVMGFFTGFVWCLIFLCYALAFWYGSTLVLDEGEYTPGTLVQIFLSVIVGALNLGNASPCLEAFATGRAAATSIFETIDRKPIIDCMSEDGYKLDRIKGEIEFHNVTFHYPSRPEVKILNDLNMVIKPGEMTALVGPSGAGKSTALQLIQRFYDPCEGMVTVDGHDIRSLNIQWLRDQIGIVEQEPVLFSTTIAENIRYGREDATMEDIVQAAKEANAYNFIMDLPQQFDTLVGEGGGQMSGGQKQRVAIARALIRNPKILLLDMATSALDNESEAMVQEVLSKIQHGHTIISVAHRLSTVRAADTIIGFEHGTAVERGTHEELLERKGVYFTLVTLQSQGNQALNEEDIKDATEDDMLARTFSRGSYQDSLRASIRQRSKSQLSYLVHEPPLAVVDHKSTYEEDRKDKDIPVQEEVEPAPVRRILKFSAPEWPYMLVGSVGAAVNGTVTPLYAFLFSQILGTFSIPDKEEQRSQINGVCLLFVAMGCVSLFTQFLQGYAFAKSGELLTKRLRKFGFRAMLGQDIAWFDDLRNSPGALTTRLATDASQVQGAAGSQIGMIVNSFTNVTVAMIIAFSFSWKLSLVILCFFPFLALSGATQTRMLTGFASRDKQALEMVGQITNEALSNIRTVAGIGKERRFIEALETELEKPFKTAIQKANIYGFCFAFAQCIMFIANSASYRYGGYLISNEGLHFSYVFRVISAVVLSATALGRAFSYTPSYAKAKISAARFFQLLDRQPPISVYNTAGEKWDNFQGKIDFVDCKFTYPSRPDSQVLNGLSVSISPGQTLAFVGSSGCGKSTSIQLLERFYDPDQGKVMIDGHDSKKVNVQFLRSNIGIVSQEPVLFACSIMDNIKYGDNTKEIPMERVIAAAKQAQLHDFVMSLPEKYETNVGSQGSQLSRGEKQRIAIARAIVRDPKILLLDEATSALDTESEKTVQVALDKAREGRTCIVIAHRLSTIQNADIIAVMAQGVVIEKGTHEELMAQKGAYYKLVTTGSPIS
T1 sequence (Q92633 whole entry): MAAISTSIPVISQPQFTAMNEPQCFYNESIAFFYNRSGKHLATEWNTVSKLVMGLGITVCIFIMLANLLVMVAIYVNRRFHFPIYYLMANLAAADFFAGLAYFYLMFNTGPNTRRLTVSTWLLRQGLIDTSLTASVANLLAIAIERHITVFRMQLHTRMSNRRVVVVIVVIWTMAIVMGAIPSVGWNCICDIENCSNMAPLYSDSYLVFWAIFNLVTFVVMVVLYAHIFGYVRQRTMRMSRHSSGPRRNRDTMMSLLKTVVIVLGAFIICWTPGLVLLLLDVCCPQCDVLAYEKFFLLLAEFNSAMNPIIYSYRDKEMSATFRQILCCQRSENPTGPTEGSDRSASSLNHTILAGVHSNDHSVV

With `CCc1ccccc1[C@@H](C)OC(=O)Nc1c(C)noc1C1CCN(c2ccc(C3(C(=O)O)CC3)cc2)CC1` [Compound 38, (R)-1-(4-(4-(4-(((1-(2-ethylphenyl)ethoxy)carbonyl)amino)-3-methylisoxazol-5-yl)piperidin-1-yl)phenyl)cyclopropane-1-carboxylic acid], the values for the amount remaining at 0.5 h in series [1] and in series [4] were 25 to 50% and over 75%, respectively. Further, the values for the IC50 in series [2] and in series [3] were under 100 nM and under 10 nM, respectively. The inhibition at 0.25 h, 10 µM in series [5] is 50 to 75%.
For `Cc1noc(C2CCN(c3ccc(C4(C(=O)NS(=O)(=O)CCCC(=O)O)CC4)cc3)CC2)c1NC(=O)O[C@H](C)c1ccccc1` [Compound 84], the share remaining at 0.5 h in series [1] was 50 to 75%; in series [4], over 75%. In addition, the half-inhibitory concentration (IC50) in series [2] is 100 to 500 nM; in series [3], under 10 nM. In addition, the inhibition at 0.25 h, 10 µM in series [5] was at most 25%.
Regarding `Cc1noc(C2CCN(c3ccc(C4(c5cc(O)no5)CC4)cc3)CC2)c1NC(=O)O[C@H](C)c1ccccc1` [Compound 64], the share remaining at 0.5 h in series [1] was in the range of 50 to 75%; in series [4] it was 25 to 50%. Further, the IC50 was under 100 nM in series [2] and under 10 nM in series [3]. Besides, the inhibition at 0.25 h, 10 µM in series [5] is 75 to 100%.
The like results for `Cc1noc(C2CCN(c3ccc(C4(C(=O)NS(C)(=O)=O)CC4)cc3)CC2)c1NC(=O)O[C@H](C)c1ccccc1` [Compound 12] were, in that order, over 75%, 50 to 75%, under 100 nM, 10 to 200 nM and 25 to 50%.
For `Cc1noc(C2CN(c3ccc(C4(C(=O)O)CC4)cc3)C2)c1NC(=O)O[C@H](C)c1ccccc1` [Compound 23, (R)-1-(4-(3-(3-methyl-4-(((1-phenylethoxy)carbonyl)amino)isoxazol-5-yl)azetidin-1-yl)phenyl)cyclopropane-1-carboxylic acid], in that order: over 75%, over 75%, 500 to 5000 nM, 10 to 200 nM and 25 to 50%.
The like results for `Cc1noc([C@H]2CCN(c3ccc(C4(C(=O)O)CC4)cc3)[C@@H](C)C2)c1NC(=O)O[C@H](C)c1ccccc1` (single isomer, unassigned) [Compound 10] were, in that order, over 75%, over 75%, under 100 nM, 10 to 200 nM and 25 to 50%.
Consider `Cc1noc(C2CCN(c3ccc(C4(C(=O)O)CC4)cc3)CC2)c1NC(=O)O[C@H](C)c1ccccc1` [Compound 87, 1-(4-{4-[3-methyl-4-({[(1R)-1-phenylethoxy]carbonyl}amino)-1,2-oxazol-5-yl]piperidin-1-yl}phenyl)cyclopropane-1-carboxylic acid], for which the fraction remaining at 0.5 h in series [1] and in series [4] was over 75% throughout. In addition, the results for the IC50 in series [2] and in series [3] were under 100 nM and under 10 nM, respectively. Also, in series [5], the inhibition at 0.25 h, 10 µM fell in the range of 25 to 50%.
As for `Cc1noc(C2CCN(c3ccc(C4(C(=O)NS(=O)(=O)CCCO)CC4)cc3)CC2)c1NC(=O)O[C@H](C)c1ccccc1` [Compound 85], the amount remaining at 0.5 h in series [1] was over 75%; in series [4] it was 50 to 75%. The figures for the IC50 in series [2] and in series [3] were under 100 nM and under 10 nM, respectively. Also, the inhibition at 0.25 h, 10 µM in series [5] was at most 25%.
As for `Cc1noc(N2CCC(c3ccc(C4(C(=O)O)CC4)cc3)CC2)c1NC(=O)O[C@H](C)c1ccccc1` [Compound 8, (R)-1-(4-(1-(3-methyl-4-(((1-phenylethoxy)carbonyl)amino)isoxazol-5-yl)piperidin-4-yl)phenyl)cyclopropane-1-carboxylic acid], the share remaining at 0.5 h in series [1] and in series [4] was 50 to 75% in each case. Further, the half-inhibitory concentration (IC50) in series [2] is 100 to 500 nM; in series [3], under 10 nM. Further, the inhibition at 0.25 h, 10 µM in series [5] lay within 50 to 75%.
With `Cc1nsc(C2CCN(c3ccc(C4(C(=O)NS(=O)(=O)C(F)(F)F)CC4)cc3)CC2)c1NC(=O)O[C@H](C)c1ccccc1` [Compound 94], the amount remaining at 0.5 h in series [1] and in series [4] was 50 to 75% throughout. Further, the concentration for half-maximal inhibition (IC50) in series [2] was under 100 nM; in series [3], under 10 nM. For the same molecule, the inhibition at 0.25 h, 10 µM in series [5] fell in the range of 75 to 100%.
`Cc1noc(C2CCN(c3ccc(C4(C(=O)NS(=O)(=O)CC(=O)O)CC4)cc3)CC2)c1NC(=O)O[C@H](C)c1ccccc1` [Compound 80]: the share remaining at 0.5 h in series [1] was over 75%; in series [4], 50 to 75%. Also, the half-maximal inhibitory concentration (IC50) in series [2] is under 100 nM; in series [3], under 10 nM. Moreover, the inhibition at 0.25 h, 10 µM in series [5] is 25 to 50%.
